Measured values reported in US6737383B1, “Herbicidal oxadiazolidines” (priority 1999, dated 2004).

Legend:
bedstraw = test: Test B pre/postemergence bedstraw; type: in vivo, Galium aparine
How it was run: (§1)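 Herbicidal effect was estimated by eye on a ten-point control scale after plants spent twelve to sixteen days in a greenhouse following soil or foliar treatment. Foliar sprays targeted plants at one to four leaves; all doses were formulated in a non-phytotoxic solvent with surfactant.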

surinam grass = test: Test B pre/postemergence surinam grass; type: in vivo, Brachiaria decumbens
How it was run: as §1

cocklebur = test: Test B pre/postemergence cocklebur; type: in vivo, Xanthium strumarium
How it was run: as §1

corn = test: Test B pre/postemergence corn; type: in vivo, Zea mays
How it was run: as §1

crabgrass = test: Test B pre/postemergence crabgrass; type: in vivo, Digitaria sanguinalis
How it was run: as §1

giant foxtail = test: Test B pre/postemergence giant foxtail; type: in vivo, Setaria faberii
How it was run: as §1

morningglory = test: Test B pre/postemergence morningglory; type: in vivo, Ipomoea hederacea
How it was run: as §1

pigweed = test: Test B pre/postemergence pigweed; type: in vivo, Amaranthus retroflexus
How it was run: as §1

rape = test: Test B pre/postemergence rape; type: in vivo, Brassica napus
How it was run: as §1

soybean = test: Test B pre/postemergence soybean; type: in vivo, Glycine max
How it was run: as §1

sugar beet = test: Test B pre/postemergence sugar beet; type: in vivo, Beta vulgaris
How it was run: as §1

velvetleaf = test: Test B pre/postemergence velvetleaf; type: in vivo, Abutilon theophrasti
How it was run: as §1

wheat = test: Test B pre/postemergence wheat; type: in vivo, Triticum aestivum
How it was run: as §1

purple nutsedge = test: Test B pre/postemergence purple nutsedge; type: in vivo, Cyperus rotundus
How it was run: as §1

duck salad = test: Test B flood test duck salad; type: in vivo, Heteranthera limosa
How it was run: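 Plants were grown to the 2-leaf stage before treatment with test chemical, then held in a greenhouse for twelve to sixteen days. Injury was visually rated against untreated controls on a 0–10 scale, where 0 is no effect and 10 is complete control.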

[1] = Preemergence, Rate 62 g/ha, scale of 0 to 10 where 0 is no effect and 10 is complete control
[2] = Preemergence, Rate 125 g/ha, 0 is no effect, 10 is complete control
[3] = Preemergence, Rate 250 g/ha, scale 0 to 10, 0 is no effect, 10 is complete control
[4] = Rate 62 g/ha, Postemergence, scale of 0 to 10 where 0 is no effect and 10 is complete control
[5] = Rate 125 g/ha, Postemergence, scale 0 to 10
[6] = Rate 500 g/ha, Postemergence, scale 0 to 10
[7] = Preemergence, Rate 500 g/ha, scale 0 to 10 (0 no effect, 10 complete control)

COc1nc(OC)nc(N(C(=O)n2oc(=O)n(-c3ccccc3C)c2=O)C(C)C)n1 [Compound 181]
0: Bedstraw plant response rating (bedstraw; [1]) | Bedstraw plant response rating (0 to 10 scale) (bedstraw; [2]) | Bedstraw plant response rating (bedstraw; [3]) | Bedstraw plant response rating (bedstraw; [4]) | Bedstraw plant response rating (bedstraw; [5]) | Plant response rating (0 to 10; 0 is no effect, 10 is complete control), Bedstraw (bedstraw; Rate 250 g/ha, Postemergence) | Bedstraw plant response rating (bedstraw; [6]) | B. signalgrass plant response rating (surinam grass; [1]) | B. signalgrass plant response rating (0 to 10 scale) (surinam grass; [2]) | B. signalgrass plant response rating (surinam grass; [3]) | B. signalgrass plant response rating (surinam grass; [7]) | B. signalgrass plant response rating (surinam grass; [4]) | B. signalgrass plant response rating (surinam grass; Rate 125 g/ha, Postemergence, scale 0 (no effect) to 10 (complete control)) | Plant response rating, B. signalgrass (surinam grass; Rate 250 g/ha, Postemergence, scale 0 to 10, 0 is no effect, 10 is complete control) | B. signalgrass plant response rating (surinam grass; Rate 500 g/ha, Postemergence, scale 0 to 10, 0 no effect, 10 complete control) | Cocklebur plant response rating (cocklebur; [1]) | Cocklebur plant response rating (0 to 10 scale) (cocklebur; [2]) | Cocklebur plant response rating (cocklebur; [3]) | Cocklebur plant response rating (cocklebur; [7]) | Cocklebur plant response rating (cocklebur; [4]) | Cocklebur plant response rating (cocklebur; [5]) | Plant response rating (0 to 10; 0 is no effect, 10 is complete control), Cocklebur (cocklebur; Rate 250 g/ha, Postemergence) | Cocklebur plant response rating (cocklebur; [6]) | Corn plant response rating (corn; [1]) | Corn plant response rating (0 to 10 scale) (corn; [2]) | Corn plant response rating (corn; [3]) | Corn plant response rating (corn; [7]) | Corn plant response rating (corn; [4]) | Corn plant response rating (corn; [5]) | Plant response rating (0 to 10; 0 is no effect, 10 is complete control), Corn (corn; Rate 250 g/ha, Postemergence) | Corn plant response rating (corn; [6]) | Crabgrass plant response rating (crabgrass; [1]) | Crabgrass plant response rating (0 to 10 scale) (crabgrass; [2]) | Crabgrass plant response rating (crabgrass; [3]) | Crabgrass plant response rating (crabgrass; [7]) | Crabgrass plant response rating (crabgrass; [4]) | Crabgrass plant response rating (crabgrass; [5]) | Plant response rating (0 to 10; 0 is no effect, 10 is complete control), Crabgrass (crabgrass; Rate 250 g/ha, Postemergence) | Crabgrass plant response rating (crabgrass; [6]) | Giant foxtail plant response rating (giant foxtail; [1]) | Giant foxtail plant response rating (0 to 10 scale) (giant foxtail; [2]) | Giant foxtail plant response rating (giant foxtail; [3]) | Giant foxtail plant response rating (giant foxtail; [7]) | Giant foxtail plant response rating (giant foxtail; [4]) | Giant foxtail plant response rating (giant foxtail; [5]) | Plant response rating (0 to 10; 0 is no effect, 10 is complete control), Giant foxtail (giant foxtail; Rate 250 g/ha, Postemergence) | Giant foxtail plant response rating (giant foxtail; [6]) | Morningglory plant response rating (morningglory; [1]) | Morningglory plant response rating (0 to 10 scale) (morningglory; [2]) | Morningglory plant response rating (morningglory; [3]) | Morningglory plant response rating (morningglory; [7]) | Morningglory plant response rating (morningglory; [4]) | Morningglory plant response rating (morningglory; [5]) | Plant response rating (0 to 10; 0 is no effect, 10 is complete control), Morningglory (morningglory; Rate 250 g/ha, Postemergence) | Morningglory plant response rating (morningglory; [6]) | Redroot pigweed plant response rating (pigweed; [1]) | Redroot pigweed plant response rating (0 to 10 scale) (pigweed; [2]) | Redroot pigweed plant response rating (pigweed; [3]) | Redroot pigweed plant response rating (pigweed; [7]) | Redroot pigweed plant response rating (pigweed; [4]) | Redroot pigweed plant response rating (pigweed; [5]) | Plant response rating (0 to 10; 0 is no effect, 10 is complete control), Redroot pigweed (pigweed; Rate 250 g/ha, Postemergence) | Redroot pigweed plant response rating (pigweed; [6]) | Rape plant response rating (rape; [1]) | Rape plant response rating (0 to 10 scale) (rape; [2]) | Rape plant response rating (rape; [3]) | Rape plant response rating (rape; [7]) | Rape plant response rating (rape; [4]) | Rape plant response rating (rape; [5]) | Plant response rating (0 to 10; 0 is no effect, 10 is complete control), Rape (rape; Rate 250 g/ha, Postemergence) | Rape plant response rating (rape; [6]) | Soybean plant response rating (soybean; [1]) | Soybean plant response rating (0 to 10 scale) (soybean; [2]) | Soybean plant response rating (soybean; [3]) | Soybean plant response rating (soybean; [7]) | Soybean plant response rating (soybean; [4]) | Soybean plant response rating (soybean; [5]) | Plant response rating (0 to 10; 0 is no effect, 10 is complete control), Soybean (soybean; Rate 250 g/ha, Postemergence) | Soybean plant response rating (soybean; [6]) | Sugarbeets plant response rating (sugar beet; [1]) | Sugarbeets plant response rating (0 to 10 scale) (sugar beet; [2]) | Sugarbeets plant response rating (sugar beet; [3]) | Sugarbeets plant response rating (sugar beet; [7]) | Sugarbeets plant response rating (sugar beet; [4]) | Sugarbeets plant response rating (sugar beet; [5]) | Plant response rating (0 to 10; 0 is no effect, 10 is complete control), Sugarbeets (sugar beet; Rate 250 g/ha, Postemergence) | Sugarbeets plant response rating (sugar beet; [6]) | Velvetleaf plant response rating (velvetleaf; [1]) | Velvetleaf plant response rating (velvetleaf; [3]) | Velvetleaf plant response rating (velvetleaf; [7]) | Velvetleaf plant response rating (velvetleaf; [5]) | Plant response rating (0 to 10; 0 is no effect, 10 is complete control), Velvetleaf (velvetleaf; Rate 250 g/ha, Postemergence) | Velvetleaf plant response rating (velvetleaf; [6]) | Wheat plant response rating (wheat; [1]) | Wheat plant response rating (wheat; [3]) | Wheat plant response rating (wheat; [7]) | Wheat plant response rating (wheat; [5]) | Plant response rating (0 to 10; 0 is no effect, 10 is complete control), Wheat (wheat; Rate 250 g/ha, Postemergence) | Wheat plant response rating (wheat; [6]) | Nutsedge plant response rating (purple nutsedge; [1]) | Nutsedge plant response rating (0 to 10 scale) (purple nutsedge; [2]) | Nutsedge plant response rating (purple nutsedge; [3]) | Nutsedge plant response rating (purple nutsedge; [7]) | Nutsedge plant response rating (purple nutsedge; [4]) | Nutsedge plant response rating (purple nutsedge; [5]) | Plant response rating (0 to 10; 0 is no effect, 10 is complete control), Nutsedge (purple nutsedge; Rate 250 g/ha, Postemergence) | Nutsedge plant response rating (purple nutsedge; [6]) | Ducksalad plant response rating (duck salad; Rate 62 g/ha, headed Pre-emergence (flood test species), scale 0 to 10 (0 no effect, 10 complete control)) | Ducksalad plant response rating (duck salad; Rate 125 g/ha, Pre-emergence, flood test species, scale 0 to 10 where 0 is no effect and 10 is complete control) | Ducksalad plant response rating (duck salad; Rate 250 g/ha, Pre-emergence, flood-test species, scale 0 to 10, 0 is no effect, 10 is complete control) | Plant response rating, Ducksalad (duck salad; Rate 500 g/ha, headed Pre-emergence (flood test species), scale 0 to 10 (0 no effect, 10 complete control))
